# Measured values from patent US7727736B2, “Soluble phospholipids for use in clotting factor assays” (The University of North Carolina at Chapel Hill, priority 2003, dated 2010).
# Target: T1, FVa2 (Homo sapiens, UniProt P12259)
# T1 construct: from tissue; host or cells: fresh frozen human plasma (American Red Cross Center, Durham, N.C.)
# T1 sequence (P12259 29-737 limits assumed): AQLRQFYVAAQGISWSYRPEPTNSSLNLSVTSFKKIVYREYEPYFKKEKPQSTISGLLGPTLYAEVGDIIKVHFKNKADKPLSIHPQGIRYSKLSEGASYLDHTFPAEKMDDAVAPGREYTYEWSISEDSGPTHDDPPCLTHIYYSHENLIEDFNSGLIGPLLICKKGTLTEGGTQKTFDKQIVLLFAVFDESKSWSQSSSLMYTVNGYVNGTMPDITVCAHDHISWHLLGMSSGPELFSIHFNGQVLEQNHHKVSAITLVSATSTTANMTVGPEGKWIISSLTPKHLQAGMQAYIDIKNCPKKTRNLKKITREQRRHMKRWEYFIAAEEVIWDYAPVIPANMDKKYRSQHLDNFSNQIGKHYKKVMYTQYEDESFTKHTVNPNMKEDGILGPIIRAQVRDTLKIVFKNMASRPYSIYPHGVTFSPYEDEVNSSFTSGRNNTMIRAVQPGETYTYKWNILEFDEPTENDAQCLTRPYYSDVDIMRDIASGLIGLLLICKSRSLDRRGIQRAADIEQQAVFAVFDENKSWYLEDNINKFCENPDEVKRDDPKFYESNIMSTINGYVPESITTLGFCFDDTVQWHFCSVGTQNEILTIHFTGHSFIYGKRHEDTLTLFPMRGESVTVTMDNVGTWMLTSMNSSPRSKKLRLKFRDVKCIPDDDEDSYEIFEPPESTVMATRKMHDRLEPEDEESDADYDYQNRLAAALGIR
# T1 sequence (P12259 1574-2224 limits assumed): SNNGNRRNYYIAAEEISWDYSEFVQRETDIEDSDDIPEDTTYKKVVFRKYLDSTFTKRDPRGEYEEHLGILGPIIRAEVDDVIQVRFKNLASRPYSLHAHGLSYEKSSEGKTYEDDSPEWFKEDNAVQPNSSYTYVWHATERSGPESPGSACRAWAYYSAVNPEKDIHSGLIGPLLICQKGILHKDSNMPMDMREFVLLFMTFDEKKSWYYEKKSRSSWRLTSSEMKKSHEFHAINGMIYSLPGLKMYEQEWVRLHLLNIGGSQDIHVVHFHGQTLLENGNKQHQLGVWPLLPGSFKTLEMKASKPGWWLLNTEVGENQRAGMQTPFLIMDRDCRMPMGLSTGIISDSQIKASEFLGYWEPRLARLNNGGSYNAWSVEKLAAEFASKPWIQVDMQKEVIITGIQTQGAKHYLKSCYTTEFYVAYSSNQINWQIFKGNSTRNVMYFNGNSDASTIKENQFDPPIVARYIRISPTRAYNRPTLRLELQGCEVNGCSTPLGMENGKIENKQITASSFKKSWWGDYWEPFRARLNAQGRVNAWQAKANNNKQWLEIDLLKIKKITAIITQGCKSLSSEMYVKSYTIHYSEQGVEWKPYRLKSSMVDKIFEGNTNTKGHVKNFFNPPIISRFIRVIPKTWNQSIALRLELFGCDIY
# Assay: Native gel electrophoresis (Ferguson analysis), C6PS bound to FVa2
# Assay type: binding
# Settings: 400 μM C6PS
# Method: Native Gel Electrophoresis. This method has been used to document the association of blood coagulation proteins in solution (Majumder, et al. (2002) supra; Majumder, et al. (2003) supra). A mixture of 1 nM FXa and 1 nM FVa was incubated at 37° C. for 2 minutes in the presence and absence of 400 μM C6PS and the two samples were run together with known marker proteins (270 kiloDalton-14.2 kiloDalton; SIGMA, St. Louis, Mo.) on five gels (5, 6, 6.5, 7, and 8% total acrylamide with bisacrylamide/acrylamide being 1/29 in all cases) in a BIORAD® MINI-PROTEAN® II minigel apparatus (BIORAD® Corp., Hercules, Calif.) and stained with colloidal Coomassie blue (Mitra, et al. (1994) supra). FXa and FVa, at these same concentrations and in the presence of 400 μM C6PS, were run separately as controls. Protein retardation coefficients, which depend to a good approximation only on the hydrodynamic size and shape of the protein, were determined for both the marker and unknown proteins (Ferguson (1964) Metabolism 13:985-1002). A log-log plot of the retardation coefficient against the molecular weights of the marker proteins produced a linear curve from which the molecular weight of the FVa•FXa complex was determined from its measured retardation coefficient (Bryan (1977) Anal. Biochem. 78(2):513-9). […]
structure (smiles),measurement,value
"CCCCCC(=O)OC[C@H](COP(=O)(O)OC[C@H](N)C(=O)O)OC(=O)CCCCC [C6PS, 1,2-dicaproyl-sn-glycero-3-phospho-L-serine]",molecules of C6PS bound to FVa2 from molecular mass,4.2 molecules
